The source of these data is ChEMBL document CHEMBL1122769, “Mesoionic xanthine analogues: antagonists of adenosine receptors” (J Med Chem, 1984).

The target in test [1] is T1, Adenosine receptor A1 (Rattus norvegicus, UniProt P25099).
T1 sequence (P25099 whole entry): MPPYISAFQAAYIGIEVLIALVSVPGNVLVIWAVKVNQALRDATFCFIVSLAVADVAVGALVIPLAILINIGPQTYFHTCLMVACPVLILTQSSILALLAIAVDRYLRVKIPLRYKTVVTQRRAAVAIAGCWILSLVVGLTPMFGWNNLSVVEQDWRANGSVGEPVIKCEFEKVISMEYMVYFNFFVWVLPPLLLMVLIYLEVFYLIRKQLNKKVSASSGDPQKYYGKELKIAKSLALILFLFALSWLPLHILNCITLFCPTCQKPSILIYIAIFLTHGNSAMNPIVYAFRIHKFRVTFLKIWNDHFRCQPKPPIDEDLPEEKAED
As to the kind of experiment: Antagonism of adenosine A1 receptor assessed from the ability to inhibit binding of [3H]cyclohexyladenosine to rat cerebral cortical membranes. Type of test: cell membranes, Membrane.

The species entered for test [2] is Cavia porcellus. As to the kind of experiment: Ability to inhibit 2-chloroadenosine (15 uM)-elicited accumulations of cyclic AMP in guinea pig cerebral cortical slices.

Where only a bound is given, the exact number is not on record here.

One may read the IC50 as the concentration that gives 50% inhibition. A lower IC50 goes with greater potency. For `CCCn1c(=O)c2nc[nH]c2n(CCC)c1=O`, the figures for the IC50 in test [1] and in test [2] were 1.5 µM and 8.1 µM, respectively.
Taken in the same sequence, the figures for `O=c1c2[nH]cnc2n(Cc2ccccc2)c(=O)n1Cc1ccccc1` were 7 µM and 35 µM.
In the same order, the values of `CCCCCN1C(=O)C(C)C(=O)N2N=CSC12` (configuration not stated) are 120 µM and greater than 250 µM.
Regarding `CCC1C(=O)N2C=CSC2N(CC)C1=O` (configuration not stated), the IC50 in test [1] is 120 µM; in test [2], 150 µM.
In the same order, the values of `CCN1C(=O)C(Cc2ccccc2)C(=O)N2N=CSC12` (configuration not stated) are 58 µM and greater than 200 µM.
In the same order, the values of `CCC1C(=O)N(CC(C)C)C2Sc3ccccc3N2C1=O` (configuration not stated) are 41 µM and 15 µM.
For `O=C1C(Cc2ccccc2)C(=O)N(CC2CC2)C2SC=CN12` (configuration not stated), the IC50 in test [1] was determined as 160 µM; in test [2], 200 µM.
In the same order, the values of `CCC1C(=O)N2C=Cc3ccccc3C2N(CC)C1=O` (configuration not stated) are 27 µM and 30 µM.
Taken in the same sequence, the figures for `CCC1C(=O)N2C=CSC2N(Cc2cc(OC)cc(OC)c2)C1=O` (configuration not stated) were 95 µM and 250 µM.
Taken in the same sequence, the figures for `CCN1C(=O)CC(=O)N2N=CSC12` (configuration not stated) were 110 µM and greater than 250 µM.
On to `CCC1C(=O)SC2N(C)C=CN2C1=O` (configuration not stated), for which the IC50 was 290 µM in test [1] and greater than 250 µM in test [2].
Taken in the same sequence, the figures for `CCN1C(=O)C(C)C(=O)N2N=CSC12` (configuration not stated) were 60 µM and greater than 250 µM.
`CCC1C(=O)N2C=CSC2N(Cc2ccccc2)C1=O` (configuration not stated): the half-maximal inhibitory concentration (IC50) in test [1] worked out at 160 µM; in test [2] it was 150 µM.
Regarding `CCC1C(=O)N(CC)C2SC(C)=NN2C1=O` (configuration not stated), the IC50 in test [1] was 500 µM; in test [2], greater than 250 µM.
Taken in the same sequence, the figures for `CCCC1C(=O)N2C=CSC2N(CCC)C1=O` (configuration not stated) were 54 µM and 250 µM.
Turning to `CCCC1C(=O)N(CC(C)C)C2Sc3ccccc3N2C1=O` (configuration not stated), the IC50 in test [1] is 30 µM; in test [2] it was 20 µM.
In the same order, the values of `CCN1C(=O)C(Cc2ccc(Cl)cc2)C(=O)N2N=CSC12` (configuration not stated) are 45 µM and greater than 250 µM.
In the case of `CCC1C(=O)N(CC)C2SC=NN2C1=O` (configuration not stated), the results for the IC50 in test [1] and in test [2] were 72 µM and greater than 250 µM, respectively.
On to `CCC1C(=O)N(CC)C2SC(c3ccccc3)=NN2C1=O` (configuration not stated), for which the IC50 in test [1] came to 80 µM; in test [2], 250 µM.
Consider `CCC1C(=O)N2C=CSC2N(CC2CC2)C1=O` (configuration not stated), for which the IC50 in test [1] is 100 µM; in test [2], 120 µM.
Taken in the same sequence, the figures for `CCCC1C(=O)N(C)C2N(C)C=NN2C1=O` (configuration not stated) were greater than 250 µM and greater than 250 µM.
Taken in the same sequence, the figures for `CCn1c(=O)c2nc[nH]c2n(CC)c1=O` were 6.4 µM and 12 µM.
For `Cn1c(=O)c2nc(-c3ccccc3)[nH]c2n(C)c1=O` [8-PHENYL THEOPHYLLINE], in test [2], the IC50 turned out to be 1.65 µM.
On the same count and under the same terms, the value for `Cn1c(=O)c2c(ncn2C)n(C)c1=O` [CAFFEINE] was 150 µM; that for `Cn1c(=O)c2nc[nH]c2n(C)c1=O` [THEOPHYLLINE] was 42 µM.
